This note sets out measurements from patent publication US20230132973A1, “DIHYDRO-SPIRO[INDOLINE-3:1'-iSOQUINOLIN]-2-ONES AS ANTIMALARIAL AGENTS” (The University of Buea, priority 2020, published 2023).

By CC50 is commonly meant the concentration that lowers cell viability or growth by half. As a reminder, the pEC50 is −log10 of the EC50, conventionally taken in molar units.

Data set [1] concerns asexual blood stages of P. falciparum. Kind of data set: Life cycle stage specific action by microscopy of Giemsa-stained thin smears. It counts as cell-based, Plasmodium falciparum. As to conditions: 10 μM, 24 h, listed as (±)-moxiquindole. The protocol: The life cycle stage specific action of (±)-moxiquindole was determined by treatment of parasites at different time points followed by microscopic analysis of Giemsa-stained thin blood smears. Stage proportions were calculated for each asexual parasite stage in the drug treated wells relative to the same stage in the negative control wells.
The inhibitory effects of active compounds or reference drugs on parasite development and schizont rupture were determined by quantitative light microscopy as previously described (Lee et al., 2015). Briefly, synchronized cultures (1.5% hematocrit and 3% parasitemia) at different time-points (early rings, mid trophozoites and schizonts) were treated with either test compound or controls at 10 μM final concentration for 24 h under regular culture conditions. Following treatment, Giemsa-stained thin smears were prepared and parasites were counted in 1,000 erythrocytes per treatment. Stage proportions in test wells relative to solvent control wells were calculated and used to assess the in vitro effects of each compound on trophozoites and schizont development as well as merozoite egress and invasion.

Data set [2] has as its system vacuolar lipid dynamics in P. falciparum. Kind of data set: Effect on vacuolar lipid dynamics (Oil Red O staining). The data set is classed as cell-based, Plasmodium falciparum. The conditions noted are these: trophozoite stage parasites, 24 h. The protocol:
Because cellular vacuolation may result from perturbation of intracellular lipid content, we investigated the effect of (±)-moxiquindole on vacuolar lipid dynamics using fluorescent Oil red O as lipid stain.
The effect of the compounds on intracellular lipid dynamics was assessed by measurement of intracellular lipid content using Oil Red O. Briefly, early rings or late trophozoite stage parasites (30 hpi) were treated with the compounds or controls for 24 h under regular culture conditions. Following treatment, inhibitors were removed by centrifugation at 2500 rpm for 5 min and pellets were washed in equal volumes of 1×PBS. The parasites were fixed with 4% paraformaldehyde for 30 min at room temperature and pelleted at 2500. Three volumes of Oil Red O (ORO) stock solution (5 mg/mL in 100% isopropanol) were diluted in two volumes of distilled water and filtered prior to use. About 100 μL of the ORO were added to parasite pellets in the tube and incubated for 30 minutes. Parasites were pelleted and washed twice in distilled water. Thereafter, parasites were deposited on pre-cleaned coverslips and air dried. Dried coverslips were mounted in DAPI antifade reagent onto cleaned slides, air dried and viewed under a 100× oil immersion lens and images acquired using a Leica DM1000 fluorescence microscope suite (LAS version 4.5).

Data set [3] has as its system Normal African Green Monkey Kidney Epithelial (Vero) cells. Kind of data set: MTT cell proliferation (cytotoxicity) assay, Vero cells. The data set is classed as cell-based. The protocol: (§1) By principle, the soluble MTT is reduced to an insoluble colored formazan product by mitochondrial succinate dehydrogenase in viable cells. Normal African Green Monkey Kidney Epithelial (Vero) and the Human Liposarcoma (SW872) cells were maintained in MEM supplemented with 10% FBS, 1% Glutamine and 1% penicillin-streptomycin. Confluent cells were trypsinized and seeded at a density of 2500 cells/well (total volume 90 μL) in 96-well plates and incubated for 24 h prior to drug treatment. Two-fold serial dilutions of the compounds (100-0.0488 μM) were added to the plates and incubated under humidified conditions at 37° C. for 48 h. Absorbance of the formed formazan product was measured at 550 nm wavelength using a SUNRISE microtiter plate reader. […] Selectivity indices (SI=CC50/EC50) were calculated as an indication of toxicity relative to the observed antiplasmodial activity.

Data set [4] has as its system P. chabaudi-infected mice. Kind of data set: Peter's four-day suppressive test (chemosuppressive activity). It counts as in vivo, Swiss albino mice. The protocol:
Following the encouraging in vitro antiplasmodial activities and cytotoxicity profiles reported above, as well as the ADMET properties of the primary and secondary hits identified in this study, studies were carried out to assess the in vivo efficacy of these compounds in laboratory mice. Chemosuppressive potentials were assessed using the Peter's four-day test whereas the ability of each compound to cure an established plasmodial infection was determined using the Rane's test. To assess the in vivo chemosuppressive potential of the compounds, groups of P. chabaudi-infected mice were treated by ip injection for 3 days following infection using fixed doses of 0.03, 0.3, 3, 10, or 30 mg/kg for each compound. The percent suppression of parasite growth in treated groups was calculated relative to the control group and the growth inhibition curves plotted.
Eight-week old male Swiss albino mice weighing approximately 23±3 g were housed in cages and maintained in a well-ventilated room under standard environmental conditions of temperature at 22-24° C., under a 12 h dark-light cycle, with food and water provided ad libitum.
The animals were allowed one week acclimation before commencement of the study. Three (3) mice were infected with stocked blood containing Plasmodium chabaudi parasites and used as donors. In brief, frozen blood containing the sulfadoxine/pyrimethamine resistant P. c. chabaudi (AS(50S/P) parasites was thawed and about 200 μL parasites were injected intra-peritoneally (i.p) into each of the three mice and parasitemia monitored through blood smear until a 20% threshold was reached. These infected animals then served as donors to the experimental animals. Ethical approval for the study was obtained from the University of Douala Institutional Review Board (N^oIEC-UD/1146/09/2017/A).
In vivo efficacies were conducted following a modification of the Peter's four-day suppressive test as previously described (Lee et al., 2014, Tarkang et al., 2014). Briefly, following parasite passage in donor mice, the mice were euthanized using diethyl ether and P. c. chabaudi infected blood was obtained by cardiac puncture and placed into heparinized tubes. The blood was then diluted with phosphate buffered saline (PBS) and immediately used to infect the experimental mice. Mice were randomly divided into seven (7) groups of 3 animals and each mouse was injected with 1×10^7 infected erythrocytes intraperitoneally (Day 0). The mice were kept for 24 hours to establish infection and Giemsa thin blood smears were prepared to quantify parasites (Day 1). Thereafter, groups 1, 2, 3, 4 and 5 were treated with compounds dissolved in 1×PBS, intraperitoneally at dosages of 30, 10, 3, 0.3 and 0.03 mg/kg body weight, respectively, while groups 6 and 7 were treated with vehicle or chloroquine at 10 mg/kg, respectively for three consecutive days (Day 1-Day 3). Twenty-four (24) and ninety-six (96) hours post-infection, thin blood smears were prepared from each animal with blood obtained from the tail vein, fixed in methanol and stained with 10% Giemsa.
Parasitemia was determined by light microscopy using a 100× objective lens and the following equation: […]
Average percentage chemosuppression was calculated as
Where A is mean parasitemia in negative control and B is mean parasitemia in test group

The subject of data set [5] is CQ-sensitive 3D7 strain of P. falciparum. The experiment in a line: SYBR green I-based parasite growth inhibition assay, 3D7 strain. The data set is classed as cell-based, Plasmodium falciparum. The conditions noted are these: for pEC50: 72 h, read-out: EC50.
Data set [6] concerns Human Liposarcoma (SW872) cells. The experiment in a line: MTT cell proliferation (cytotoxicity) assay, SW872 cells. It counts as cell-based. The protocol:
as §1

pEC50: −log10 of the molar value. Entries after “also recorded” stand apart in the source; their conditions may differ. Like-named read-outs stand apart in the source and are kept apart here. Some results are limits rather than exact numbers.

In the case of `COc1cc2c(cc1OC)C1(NCC2)C(=O)Nc2ccc(Cl)cc21` (stereo not shown) [Compound 8b], the “stage specific action on asexual blood stages (ring, trophozoite, schizont)” value in data set [1] (treated at early ring, mid-trophozoite or mid-schizont) was “multi-stage active; also recorded: exhibits inhibitory activities against ring-to-trophozoite development, trophozoite-to-schizont development and schizont rupture”. For the same molecule, in data set [1] (Giemsa-stained thin smears), the “vacuolation in treated parasites” value was “abnormal vacuolation; also recorded: induced vacuolation in parasites”. In data set [2], the “neutral lipid bodies / vacuolar lipid uptake (Oil red O)” value is “devoid of neutral lipid bodies”. The CC50 in data set [3] (MTT) is > 100000 nM; in data set [6] (SW872, MTT), > 100000 nM. For the same molecule, the cell viability result in data set [3] (up to 100 μM compound concentration, 48 h) is on record as “no significant decrease in cell viability”; in data set [6] (SW872, up to 100 μM compound concentration, 48 h) it was “no significant decrease in cell viability”. The suppression of parasitemia in data set [4] (3.0 mg/kg ip) is recorded as 98%. Moreover, the “suppressive ED50” value in data set [4] (ip, 3 days, P. chabaudi-infected mice) stood at 0.25 mg/kg. Further, the “dose-response curve within the tested drug concentration range” value in data set [5] (Pf 3D7, 0.078 μM to 10 μM) is “complete sigmoidal dose-response curve”. Moreover, the pEC50 is 5.73 in data set [5] (Pf 3D7, 0.078 μM to 10 μM, listed as (±)-moxiquindole) and > 5.70 in data set [5] (Pf 3D7, 0.078 μM to 10 μM). Moreover, the “parasite growth inhibition in primary assays” value in data set [5] (primary screening at 10 μM, Pf 3D7, 72 h) is recorded as ~97%.
